Data set [1] is described as follows: Selectivity index, ratio of IC50 for rat L6 cells to IC50 for chloroquine-resistant Plasmodium falciparum K1. Format: toxicity, cell-based. The settings on record: read-out: Ratio IC50.
In data set [2] the test system is L6. The data set can be described thus: Cytotoxicity against rat L6 cells after 70 hrs by alamar blue assay. Format: cell-based. Conditions: L6, 70 h.
Data set [3] in a line: Selectivity index, ratio of IC50 for rat L6 cells to IC50 for blood stream form of Trypanosoma brucei rhodesiense STIB900 trypomastigotes. Format: toxicity, cell-based. The settings on record: read-out: Ratio IC50.
Data set [4] can be described thus: Selectivity index, ratio of IC50 for rat L6 cells to IC50 for Leishmania donovani MHOM/SD/62/1S-CL2D axenic amastigotes. The settings on record: read-out: Ratio IC50. Format: toxicity, cell-based.
In data set [5] the test system is Plasmodium falciparum. The data set can be described thus: Antiplasmodial activity after 48 hrs against chloroquine-resistant Plasmodium falciparum K1 by [3H]hypoxanthine uptake. The data set is classed as functional, organism-based.
Data set [6] concerns Leishmania donovani. The data set can be described thus: Antileishmanial activity against Leishmania donovani MHOM/SD/62/1S-CL2D axenic amastigotes after 72 hrs by tetrazolium dye-based microplate reader method. Format: functional, organism-based.
For data set [7], the system named is Trypanosoma brucei rhodesiense. The data set can be described thus: Antitrypanosomal activity against blood stream form of Trypanosoma brucei rhodesiense STIB900 trypomastigotes after 70 hrs by alamar blue assay. The data set is classed as functional, organism-based. The settings on record: STIB900, 70 h.
Data set [8] relates to Trypanosoma brucei rhodesiense. The data set can be described thus: Antitrypanosomal activity against Trypanosoma brucei rhodesiense STIB900 in mouse model of acute trypanosomiasis assessed as increase in survival time at 20 mg/kg administered daily for 4 days. Format: functional, organism-based. On the set-up: dose 20 mg/kg.
The subject of data set [9] is Trypanosoma brucei rhodesiense. The data set can be described thus: Antitrypanosomal activity against Trypanosoma brucei rhodesiense STIB900 in mouse model of acute trypanosomiasis assessed as induction of cure at 20 mg/kg administered daily for 4 days. The data set is classed as functional, organism-based. On the set-up: dose 20 mg/kg.
Data set [10] has as its system Trypanosoma brucei rhodesiense. The data set can be described thus: Ratio of pentamidine IC50 to compound IC50 for blood stream form of Trypanosoma brucei rhodesiense STIB900 trypomastigotes. The data set is classed as functional.

Structures are written as SMILES. pIC50: −log10 of the molar value. The source made the active and inactive calls. The rule behind the calls is not given here.

As usually defined, the pIC50 is the negative decadic logarithm of the IC50, by convention in mol/L. Read a high pIC50 as a low IC50. Regarding `CC(C)NC(=N)c1ccc2oc(-c3cccc(OCCCCCCOc4ccccc4)c3)cc2c1`, the selectivity ratio in [1] is 40; in data set [3], 6; in [4] it was 1. For the same compound, the pIC50 was 5.13 in data set [2], 6.74 in data set [5], 5.15 in data set [6] and 5.94 in data set [7].
`c1ccc(OCCCCCCOc2cccc(-c3cc4cc(C5=NCCN5)ccc4o3)c2)cc1`: the values for the selectivity ratio in data set [1], in data set [3] and in data set [4] were 51, 26 and 1, respectively. Also, the pIC50 is 7.31 in [5] and 5.72 in data set [6].
With `N=C(N)c1ccc(OCCCOc2ccc(-c3cc4ccc(C(=N)N)cc4o3)cc2)cc1`, the pIC50 in data set [2] was 5.07; in data set [6], 6.11; in [7] it was 7.60. Besides, in data set [8], the result was Active. Further, the outcome in data set [9] was inactive. Further, in [10], the “Ratio IC50” value is recorded as 8.

Values taken from ChEMBL document CHEMBL1153541 (J Med Chem, 2009).
